Read-outs that look alike come from different tables or passages of the source.
How the values were obtained:
[1] = system: symmetric dimethylation of arginine (SDMA) of PRMT5 substrates in MCF-7 cells; experiment: PRMT5 Cell Target Engagement (TE) Assay; format: cell-based; conditions: 3 days treatment, SDMA high content imaging
In short: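 MCF-7 cells treated 3 days at 37 °C with a ten-point 1:3 titration from 10000 nM. Fixed cells immunostained with anti-SDMA and Alexa488 secondary; nuclear fluorescence quantified by high-content imaging versus DMSO wells, with IC50 from a 4-parameter fit.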

[2] = target: T1, Full-length (FL)-PRMT5-MEP50 enzyme complex (Homo sapiens, UniProt O14744); experiment: PRMT5-MEP50 Enzyme Methylation Assay (Version A); format: biochemical
T1 construct: Full-length (FL)-PRMT5-MEP50 enzyme complex (recombinant proteins from baculovirus-transfected Sf21 cells: FL-PRMT5; MW=73837 kDa and FL-MEP50; MW=38614); made in house; host or cells: baculovirus-transfected Sf21 cells
In short: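 Compound was pre-incubated with enzyme for 60 min, then reacted 150 min at 37° C. at final 1.0 nM PRMT5-MEP50, 15 μM SAM and 75 nM biotinylated H4R3(Me1) peptide, in 50 mM Bicine pH 8.0 with 1% DMSO. SAMDI mass-spectrometric readout of Me1→Me2 conversion. EC50 from 4- or 7-parameter regression.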

[3] = single EC50 = 4 parameter single site sigmoidal fit, EC50 1 = first value of 7 parameter biphasic fit, read-out: Enzyme Methylation Assay Version A (EC50 or EC50 1)
[4] = second value of 7 parameter biphasic fit, read-out: Enzyme Methylation Assay Version A (EC50 2)

T1 sequence (O14744 whole entry): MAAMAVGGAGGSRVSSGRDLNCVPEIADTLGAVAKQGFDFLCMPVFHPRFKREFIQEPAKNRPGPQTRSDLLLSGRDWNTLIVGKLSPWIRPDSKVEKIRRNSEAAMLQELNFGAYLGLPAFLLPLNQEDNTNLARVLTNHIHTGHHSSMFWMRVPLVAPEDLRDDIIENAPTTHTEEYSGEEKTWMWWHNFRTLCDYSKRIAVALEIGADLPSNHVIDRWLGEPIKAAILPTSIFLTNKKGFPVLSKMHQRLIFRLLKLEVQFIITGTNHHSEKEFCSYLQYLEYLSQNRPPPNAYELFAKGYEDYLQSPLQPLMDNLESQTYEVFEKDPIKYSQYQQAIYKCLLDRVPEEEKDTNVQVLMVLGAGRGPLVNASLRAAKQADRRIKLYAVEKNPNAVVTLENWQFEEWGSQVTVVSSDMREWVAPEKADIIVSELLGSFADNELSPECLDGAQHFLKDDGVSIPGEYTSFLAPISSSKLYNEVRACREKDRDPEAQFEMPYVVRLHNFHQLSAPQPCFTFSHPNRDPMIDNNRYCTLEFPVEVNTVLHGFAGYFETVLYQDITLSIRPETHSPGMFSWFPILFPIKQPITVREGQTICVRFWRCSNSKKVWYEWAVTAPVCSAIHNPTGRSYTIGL
T1 sequence (Q9BQA1 whole entry partner): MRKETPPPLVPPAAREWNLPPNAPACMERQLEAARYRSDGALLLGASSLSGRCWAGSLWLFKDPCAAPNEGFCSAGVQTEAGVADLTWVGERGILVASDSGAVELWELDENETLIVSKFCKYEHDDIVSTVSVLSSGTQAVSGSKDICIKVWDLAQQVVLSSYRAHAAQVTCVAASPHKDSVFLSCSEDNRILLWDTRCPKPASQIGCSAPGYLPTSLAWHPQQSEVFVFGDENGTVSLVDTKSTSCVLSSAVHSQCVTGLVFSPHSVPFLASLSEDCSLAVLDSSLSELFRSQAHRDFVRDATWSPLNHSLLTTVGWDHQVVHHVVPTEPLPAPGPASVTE

Row | SMILES | EC50 ([1]; Homo sapiens, MCF7, 72 h) | EC50 [2, 3] | EC50 [2, 4] | EC50 [1]
1 | COC(C)c1cnc2nc(C(=O)N3CC[C@]4(Cc5ccccc5CN4)[C@H](O)C3)cn2c1 (single isomer, unassigned) [Example 136] | 146 nM | 32.9 nM | – | –
2 | O=C(c1cn2cc(Br)ccc2n1)N1CCC2(Cc3ccccc3CN2)C(O)C1 (stereo not drawn) [Example 16, A diastereomer of (6-bromoimidazo[1,2-a]pyridin-2-yl)(3′-hydroxy-1,4-dihydro-1′H,2H-spiro[isoquinoline-3,4′-piperidin]-1′-yl)methanone] | 50.9 nM | 2.02 nM | 1590 nM | –
3 | Cc1nc(Br)cn2cc(C(=O)N3CC[C@]4(Cc5ccccc5CN4)[C@H](O)C3)nc12 [Example 65, (6-bromo-8-methylimidazo[1,2-a]pyrazin-2-yl)[(3R,3′R)-3′-hydroxy-1,4-dihydro-1′H,2H-spiro[isoquinoline-3,4′-piperidin]-1′-yl]methanone] | 99.1 nM | 1.19 nM | 1360 nM | –
4 | CO[C@H](C)c1cc(-c2cncs2)cn2cc(C(=O)N3CC[C@]4(Cc5ccccc5CN4)[C@H](O)C3)nc12 [Example 241, [(3R,3′R)-3′-hydroxy-1,4-dihydro-1′H,2H-spiro[isoquinoline-3,4′-piperidin]-1′-yl]{8-[(1R)-1-methoxyethyl]-6-(1,3-thiazol-5-yl)imidazo[1,2-a]pyridin-2-yl}methanone] | 4.87 nM | 0.932 nM | 211 nM | –
5 | CC1(C)CC1(C#N)c1cnc2nc(C(=O)N3CC[C@]4(Cc5ccccc5CN4)[C@H](O)C3)cn2c1 (single isomer, unassigned) [Example 148] | – | 1.11 nM | 1910 nM | 121 nM
6 | COCc1cc(Cl)cn2cc(C(=O)N3CC[C@]4(Cc5ccccc5CN4)[C@H](O)C3)nc12 [Example 112, (6-chloro-8-(methoxymethyl)imidazo[1,2-a]pyridin-2-yl)((3R,3′R)-3′-hydroxy-1,4-dihydro-2H-spiro[isoquinoline-3,4′-piperidin]-1′-yl)methanone] | 6.75 nM | 0.703 nM | 271 nM | –
7 | O=C(c1cn2cc(Br)nc(OCC3CCCO3)c2n1)N1CC[C@]2(Cc3ccccc3CN2)[C@H](O)C1 (single isomer, unassigned) [Example 101, (6-bromo-8-(((S or R)-tetrahydrofuran-2-yl)methoxy)imidazo[1,2-a]pyrazin-2-yl)((3R,3′R)-3′-hydroxy-1,4-dihydro-2H-spiro[isoquinoline-3,4′-piperidin]-1′-yl)methanone] | – | 0.294 nM | 56.2 nM | 7.02 nM
8 | COC(C)c1cc(C(F)(F)F)cn2cc(C(=O)N3CC[C@]4(Cc5ccccc5CN4)[C@H](O)C3)nc12 (stereo partly drawn) [Example 67, [(3R,3′R)-3′-hydroxy-1,4-dihydro-1′H,2H-spiro[isoquinoline-3,4′-piperidin]-1′-yl][8-(1-methoxyethyl)-6-(trifluoromethyl)imidazo[1,2-a]pyridin-2-yl]methanone] | 7.98 nM | 0.354 nM | 313 nM | –
9 | Cc1ccc(C(=O)N2CC[C@]3(Cc4ccccc4CN3)[C@H](O)C2)c(-n2nccn2)n1 [Example 186, ((3R,3′R)-3′-hydroxy-1,4-dihydro-2H-spiro[isoquinoline-3,4′-piperidin]-1′-yl)(6-methyl-2-(2H-1,2,3-triazol-2-yl)pyridin-3-yl)methanone] | 71.2 nM | 0.241 nM | 501 nM | –
10 | COC(C)c1cc(Br)cn2cc(C(=O)N3CC[C@]4(Cc5ccc(Cl)cc5CN4)[C@H](O)C3)nc12 (single isomer, unassigned) [Example 226] | 5.04 nM | 1.4 nM | – | –
11 | O=C(c1cn2c(n1)CCC(C(F)(F)F)C2)N1CC[C@]2(Cc3ccccc3CN2)[C@H](O)C1 (stereo partly drawn) [Example 54, [(3R,3′R)-3′-hydroxy-1,4-dihydro-1′H,2H-spiro[isoquinoline-3,4′-piperidin]-1′-yl][6-(trifluoromethyl)-5,6,7,8-tetrahydroimidazo[1,2-a]pyridin-2-yl]methanone] | 169 nM | 8.01 nM | 2660 nM | –
12 | Cc1ccc(C(=O)N2CC[C@]3(Cc4ccccc4CN3)[C@H](O)C2)cn1 [Example 221, [(3R,3′R)-3′-hydroxy-1,4-dihydro-1′H,2H-spiro[isoquinoline-3,4′-piperidin]-1′-yl](6-methyl-3-pyridinyl)methanone] | 2540 nM | 43.6 nM | 3510 nM | –
13 | COc1cccnc1-c1cc([C@@H](C)OC)c2nc(C(=O)N3CC[C@]4(Cc5ccccc5CN4)[C@H](O)C3)cn2c1 [Example 238, [(3R,3′R)-3′-hydroxy-1,4-dihydro-1′H,2H-spiro[isoquinoline-3,4′-piperidin]-1′-yl]{8-[(1R)-1-methoxyethyl]-6-(3-methoxy-2-pyridinyl)imidazo[1,2-a]pyridin-2-yl}methanone] | 4.25 nM | 1.27 nM | – | –
14 | COC[C@@H]1C[C@H](C(F)(F)F)Cn2cc(C(=O)N3CC[C@]4(Cc5ccccc5CN4)[C@H](O)C3)nc21 (single isomer, unassigned) [Example 156] | 642 nM | 42.7 nM | 15800 nM | –
15 | CC(C#N)c1cnc2nc(C(=O)N3CC[C@]4(Cc5ccccc5CN4)[C@H](O)C3)cn2c1 (stereo partly drawn) [Example 133, 2-(2-{[(3R,3′R)-3′-hydroxy-1,4-dihydro-1′H,2H-spiro[isoquinoline-3,4′-piperidin]-1′-yl]carbonyl}imidazo[1,2-a]pyrimidin-6-yl)propanenitrile] | 77.4 nM | 3.79 nM | 16.2 nM | –
16 | N#CC1(c2cnc3nc(C(=O)N4CC[C@]5(Cc6ccccc6CN5)[C@H](O)C4)cn3c2)CC12CC2 (single isomer, unassigned) [Example 82] | – | 0.746 nM | – | 7.75 nM
17 | CC(C)(O)c1cc(Br)cn2cc(C(=O)N3CCC4(Cc5ccccc5CN4)C(O)C3)nc12 (stereo not drawn) [Example 48, A diastereomer of [6-bromo-8-(2-hydroxy-2-propanyl)imidazo[1,2-a]pyridin-2-yl](3′-hydroxy-1,4-dihydro-1′H,2H-spiro[isoquinoline-3,4′-piperidin]-1′-yl)methanone] | 246 nM | 4.91 nM | 2980 nM | –
18 | O=C(c1cn2cc(C(F)F)ccc2n1)N1CC[C@]2(Cc3ccccc3CN2)[C@H](O)C1 [Example 41, (6-(difluoromethyl)imidazo[1,2-a]pyridin-2-yl)((3R,3’R)-3′-hydroxy-1,4-dihydro-2H-spiro[isoquinoline-3,4′-piperidin]-1′-yl)methanone] | 2.44 nM | 0.513 nM | 209 nM | –
19 | O=C(c1cc2ncc(C3CC3)cn2n1)N1CC[C@]2(Cc3ccccc3CN2)[C@H](O)C1 [Example 70, (6-cyclopropylpyrazolo[1,5-a]pyrimidin-2-yl)[(3R,3′R)-3′-hydroxy-1,4-dihydro-1′H,2H-spiro[isoquinoline-3,4′-piperidin]-1′-yl]methanone] | 263 nM | 0.27 nM | 240 nM | –
20 | O=C(c1cn2cc(C(F)(F)F)cc(CO)c2n1)N1CC[C@]2(Cc3ccccc3CN2)[C@H](O)C1 [Example 29, ((3R,3’R)-3′-hydroxy-1,4-dihydro-1′H,2H-spiro[isoquinoline-3,4′-piperidin]-1′-yl)[8-(hydroxymethyl)-6-(trifluoromethyl)imidazo[1,2-a]pyridin-2-yl]methanone] | 18.4 nM | 0.428 nM | 653 nM | –
21 | COC(C)c1cc(Br)c2nc(C(=O)N3CC[C@]4(Cc5ccccc5CN4)[C@H](O)C3)cn2c1 (single isomer, unassigned) [Example 61] | – | 0.669 nM | 422 nM | 16.9 nM
22 | CO[C@H](C)c1cc(-c2ccnn2C)cn2cc(C(=O)N3CC[C@]4(Cc5ccccc5CN4)[C@H](O)C3)nc12 [Example 242, [(3R,3′R)-3′-hydroxy-1,4-dihydro-1′H,2H-spiro[isoquinoline-3,4′-piperidin]-1′-yl]{8-[(1R)-1-methoxyethyl]-6-(1-methyl-1H-pyrazol-5-yl)imidazo[1,2-a]pyridin-2-yl}methanone] | 1.81 nM | 0.7 nM | – | –
23 | O=C(c1cn2cc(Cl)cc(Br)c2n1)N1CC[C@]2(Cc3ccccc3CN2)[C@H](O)C1 [Example 210, (8-bromo-6-chloroimidazo[1,2-a]pyridin-2-yl)[(3R,3′R)-3′-hydroxy-1,4-dihydro-1′H,2H-spiro[isoquinoline-3,4′-piperidin]-1′-yl]methanone] | 12.4 nM | 0.207 nM | 55 nM | –
24 | O=C(c1cn2cc(Br)cc(F)c2n1)N1CC[C@]2(Cc3ccccc3CN2)[C@H](O)C1 [Example 217, (6-bromo-8-fluoroimidazo[1,2-a]pyridin-2-yl)[(3R,3′R)-3′-hydroxy-1,4-dihydro-1′H,2H-spiro[isoquinoline-3,4′-piperidin]-1′-yl]methanone] | 11.3 nM | 0.73 nM | 40.3 nM | –
25 | CNC(=O)c1cc(Br)cn2cc(C(=O)N3CC[C@]4(Cc5ccccc5CN4)[C@H](O)C3)nc12 [Example 51, 6-bromo-2-((3R,3’R)-3′-hydroxy-1,4-dihydro-2H-spiro[isoquinoline-3,4′-piperidine]-1′-carbonyl)-N-methylimidazo[1,2-a]pyridine-8-carboxamide] | 13.7 nM | 7.02 nM | 1500 nM | –

Source: US12441730B2, “PRMT5 inhibitors” (Merck Sharp & Dohme LLC, priority 2019, dated 2025)
